Assays:
PKAC-beta = target: T1, PKAC-beta (Homo sapiens, UniProt P22694); assay: KINOMEscan; assay type: binding; details: read-out: %Ctrl @ 10000nM
T1 construct: purchased DiscoverX KINOMEscan

KIT(V559D,V654A) = target: T2, KIT(V559D,V654A) (Homo sapiens, UniProt P10721, V559D/V654A); assay: KINOMEscan; assay type: binding; details: read-out: %Ctrl @ 10000nM
T2 construct: purchased DiscoverX KINOMEscan

PRKG2 = target: T3, PRKG2 (Homo sapiens, UniProt Q13237); assay: KINOMEscan; assay type: binding; details: read-out: %Ctrl @ 10000nM
T3 construct: purchased DiscoverX KINOMEscan

MKNK1 = target: T4, MKNK1 (Homo sapiens, UniProt Q9BUB5); assay: KINOMEscan; assay type: binding; details: read-out: %Ctrl @ 10000nM
T4 construct: purchased DiscoverX KINOMEscan

DDR2 = target: T5, DDR2 (Homo sapiens, UniProt Q16832); assay: KINOMEscan; assay type: binding; details: read-out: %Ctrl @ 10000nM
T5 construct: purchased DiscoverX KINOMEscan

SGK2 = target: T6, SGK2 (Homo sapiens, UniProt Q9HBY8); assay: KINOMEscan; assay type: binding; details: read-out: %Ctrl @ 10000nM
T6 construct: purchased DiscoverX KINOMEscan

EGFR(L858R,T790M) = target: T7, EGFR(L858R,T790M) (Homo sapiens, UniProt P00533, L858R/T790M); assay: KINOMEscan; assay type: binding; details: read-out: %Ctrl @ 10000nM
T7 construct: purchased DiscoverX KINOMEscan
T7 sequence (P00533 25-1210 T790M/L858R): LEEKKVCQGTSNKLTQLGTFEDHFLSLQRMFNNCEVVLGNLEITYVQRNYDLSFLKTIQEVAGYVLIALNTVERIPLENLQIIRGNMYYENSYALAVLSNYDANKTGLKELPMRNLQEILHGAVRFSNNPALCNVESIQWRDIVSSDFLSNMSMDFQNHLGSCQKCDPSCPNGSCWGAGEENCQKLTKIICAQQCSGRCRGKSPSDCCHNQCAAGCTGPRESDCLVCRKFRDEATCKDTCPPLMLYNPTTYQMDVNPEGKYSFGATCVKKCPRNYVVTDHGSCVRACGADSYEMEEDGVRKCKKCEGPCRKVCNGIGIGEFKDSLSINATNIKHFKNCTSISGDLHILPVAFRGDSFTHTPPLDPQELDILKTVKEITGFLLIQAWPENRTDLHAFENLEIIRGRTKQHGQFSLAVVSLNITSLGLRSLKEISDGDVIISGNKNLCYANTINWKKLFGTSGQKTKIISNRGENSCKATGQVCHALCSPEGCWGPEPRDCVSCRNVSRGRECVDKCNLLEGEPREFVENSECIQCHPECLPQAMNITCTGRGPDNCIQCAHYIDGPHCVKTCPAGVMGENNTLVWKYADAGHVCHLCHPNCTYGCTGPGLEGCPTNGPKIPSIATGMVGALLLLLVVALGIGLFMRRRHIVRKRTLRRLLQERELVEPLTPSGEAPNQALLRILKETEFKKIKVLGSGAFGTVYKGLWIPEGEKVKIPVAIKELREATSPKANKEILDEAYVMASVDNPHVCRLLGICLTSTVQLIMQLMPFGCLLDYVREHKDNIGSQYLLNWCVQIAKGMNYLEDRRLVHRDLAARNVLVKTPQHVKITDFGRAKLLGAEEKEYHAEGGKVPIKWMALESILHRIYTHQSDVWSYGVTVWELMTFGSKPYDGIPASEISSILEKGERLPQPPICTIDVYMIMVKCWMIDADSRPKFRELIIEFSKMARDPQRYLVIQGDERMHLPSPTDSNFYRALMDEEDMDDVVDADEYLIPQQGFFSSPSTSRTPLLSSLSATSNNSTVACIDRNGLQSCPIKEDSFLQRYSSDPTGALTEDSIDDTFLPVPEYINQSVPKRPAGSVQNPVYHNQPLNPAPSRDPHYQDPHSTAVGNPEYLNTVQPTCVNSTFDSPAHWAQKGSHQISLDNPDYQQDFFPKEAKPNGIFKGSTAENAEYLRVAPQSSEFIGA

IRAK3 = target: T8, IRAK3 (Homo sapiens, UniProt Q9Y616); assay: KINOMEscan; assay type: binding; details: read-out: %Ctrl @ 10000nM
T8 construct: purchased DiscoverX KINOMEscan

ABL1-phosphorylated = target: T9, ABL1-phosphorylated (Homo sapiens, UniProt P00519); assay: KINOMEscan; assay type: binding; details: read-out: %Ctrl @ 10000nM
T9 construct: purchased DiscoverX KINOMEscan

FLT3(D835H) = target: T10, FLT3(D835H) (Homo sapiens, UniProt P36888, D835H); assay: KINOMEscan; assay type: binding; details: read-out: %Ctrl @ 10000nM
T10 construct: purchased DiscoverX KINOMEscan

[1] = target: T11, JAK1(JH1domain-catalytic) (Homo sapiens, UniProt P23458); assay: KINOMEscan; assay type: binding; details: read-out: %Ctrl @ 10000nM
T11 construct: JAK1(JH1domain-catalytic); purchased DiscoverX KINOMEscan
T11 sequence (P23458 854-1154 limits assumed): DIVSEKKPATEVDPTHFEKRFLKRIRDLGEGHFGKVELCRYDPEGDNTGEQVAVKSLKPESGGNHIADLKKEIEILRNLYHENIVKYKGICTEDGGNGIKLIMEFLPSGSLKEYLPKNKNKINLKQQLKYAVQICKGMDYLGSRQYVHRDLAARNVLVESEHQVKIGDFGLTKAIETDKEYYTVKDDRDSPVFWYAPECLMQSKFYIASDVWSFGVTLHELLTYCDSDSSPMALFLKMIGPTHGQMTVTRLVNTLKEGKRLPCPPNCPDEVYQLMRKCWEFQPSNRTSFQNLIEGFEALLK

FGFR3 = target: T12, FGFR3 (Homo sapiens, UniProt P22607); assay: KINOMEscan; assay type: binding; details: read-out: %Ctrl @ 10000nM
T12 construct: purchased DiscoverX KINOMEscan

Plasma stability = assay type: in vitro ADME; details: mouse, read-out: Plasma Stability T1/2
PIM3 = target: T13, PIM3 (Homo sapiens, UniProt Q86V86); assay: KINOMEscan; assay type: binding; details: read-out: %Ctrl @ 10000nM
T13 construct: purchased DiscoverX KINOMEscan

BMPR1A = target: T14, BMPR1A (Homo sapiens, UniProt P36894); assay: KINOMEscan; assay type: binding; details: read-out: %Ctrl @ 10000nM
T14 construct: purchased DiscoverX KINOMEscan

PAMPA-BBB = assay type: in vitro ADME; details: BBB = Blood Brain Barrier, read-out: PAMPA-BBB, Avg Pe
CSNK1A1 = target: T15, CSNK1A1 (Homo sapiens, UniProt P48729); assay: KINOMEscan; assay type: binding; details: read-out: %Ctrl @ 10000nM
T15 construct: purchased DiscoverX KINOMEscan
T15 sequence (P48729 whole entry): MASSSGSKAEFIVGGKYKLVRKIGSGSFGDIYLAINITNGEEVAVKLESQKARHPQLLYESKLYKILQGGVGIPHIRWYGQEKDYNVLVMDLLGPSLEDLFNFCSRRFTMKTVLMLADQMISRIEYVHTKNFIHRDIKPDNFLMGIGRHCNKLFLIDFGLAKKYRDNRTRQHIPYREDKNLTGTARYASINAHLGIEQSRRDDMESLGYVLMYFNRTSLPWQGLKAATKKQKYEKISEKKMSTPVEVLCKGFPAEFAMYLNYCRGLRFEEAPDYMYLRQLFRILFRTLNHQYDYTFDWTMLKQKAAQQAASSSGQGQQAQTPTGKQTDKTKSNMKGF

TAOK3 = target: T16, TAOK3 (Homo sapiens, UniProt Q9H2K8); assay: KINOMEscan; assay type: binding; details: read-out: %Ctrl @ 10000nM
T16 construct: purchased DiscoverX KINOMEscan

CAMK2B = target: T17, CAMK2B (Homo sapiens, UniProt Q13554); assay: KINOMEscan; assay type: binding; details: read-out: %Ctrl @ 10000nM
T17 construct: purchased DiscoverX KINOMEscan

TSSK3 = target: T18, TSSK3 (Homo sapiens, UniProt Q96PN8); assay: KINOMEscan; assay type: binding; details: read-out: %Ctrl @ 10000nM
T18 construct: DNA label for qPCR (T7 phage fusion or DNA tag); purchased DiscoverX scanMAX; host or cells: E. coli BL21-derived (T7 phage) or HEK-293

ZAK = target: T19, ZAK (Homo sapiens, UniProt Q9NYL2); assay: KINOMEscan; assay type: binding; details: read-out: %Ctrl @ 10000nM
T19 construct: purchased DiscoverX scanMAX; host or cells: E. coli BL21-derived host (T7 phage) or HEK-293

RET(V804M) = target: T20, RET(V804M) (Homo sapiens, UniProt P07949, V804M); assay: KINOMEscan; assay type: binding; details: read-out: %Ctrl @ 10000nM
T20 construct: purchased DiscoverX KINOMEscan

ICK = target: T21, ICK (Homo sapiens, UniProt Q9UPZ9); assay: KINOMEscan; assay type: binding; details: read-out: %Ctrl @ 10000nM
T21 construct: purchased DiscoverX KINOMEscan

MYO3A = target: T22, MYO3A (Homo sapiens, UniProt Q8NEV4); assay: KINOMEscan; assay type: binding; details: read-out: %Ctrl @ 10000nM
T22 construct: purchased DiscoverX KINOMEscan

PIP5K2B = target: T23, PIP5K2B (Homo sapiens, UniProt P78356); assay: KINOMEscan; assay type: binding; details: read-out: %Ctrl @ 10000nM
T23 construct: purchased DiscoverX KINOMEscan

PIK3CA(H1047L) = target: T24, PIK3CA(H1047L) (Homo sapiens, UniProt P42336, H1047L); assay: KINOMEscan; assay type: binding; details: read-out: %Ctrl @ 10000nM
T24 construct: purchased DiscoverX KINOMEscan

MLK2 = target: T25, MLK2 (Homo sapiens, UniProt Q02779); assay: KINOMEscan; assay type: binding; details: read-out: %Ctrl @ 10000nM
T25 construct: purchased DiscoverX KINOMEscan

ERN1 = target: T26, ERN1 (Homo sapiens, UniProt O75460); assay: KINOMEscan; assay type: binding; details: read-out: %Ctrl @ 10000nM
T26 construct: purchased DiscoverX KINOMEscan

EPHA6 = target: T27, EPHA6 (Homo sapiens, UniProt Q9UF33); assay: KINOMEscan; assay type: binding; details: read-out: %Ctrl @ 10000nM
T27 construct: purchased DiscoverX KINOMEscan
T27 sequence (Q9UF33 23-1036): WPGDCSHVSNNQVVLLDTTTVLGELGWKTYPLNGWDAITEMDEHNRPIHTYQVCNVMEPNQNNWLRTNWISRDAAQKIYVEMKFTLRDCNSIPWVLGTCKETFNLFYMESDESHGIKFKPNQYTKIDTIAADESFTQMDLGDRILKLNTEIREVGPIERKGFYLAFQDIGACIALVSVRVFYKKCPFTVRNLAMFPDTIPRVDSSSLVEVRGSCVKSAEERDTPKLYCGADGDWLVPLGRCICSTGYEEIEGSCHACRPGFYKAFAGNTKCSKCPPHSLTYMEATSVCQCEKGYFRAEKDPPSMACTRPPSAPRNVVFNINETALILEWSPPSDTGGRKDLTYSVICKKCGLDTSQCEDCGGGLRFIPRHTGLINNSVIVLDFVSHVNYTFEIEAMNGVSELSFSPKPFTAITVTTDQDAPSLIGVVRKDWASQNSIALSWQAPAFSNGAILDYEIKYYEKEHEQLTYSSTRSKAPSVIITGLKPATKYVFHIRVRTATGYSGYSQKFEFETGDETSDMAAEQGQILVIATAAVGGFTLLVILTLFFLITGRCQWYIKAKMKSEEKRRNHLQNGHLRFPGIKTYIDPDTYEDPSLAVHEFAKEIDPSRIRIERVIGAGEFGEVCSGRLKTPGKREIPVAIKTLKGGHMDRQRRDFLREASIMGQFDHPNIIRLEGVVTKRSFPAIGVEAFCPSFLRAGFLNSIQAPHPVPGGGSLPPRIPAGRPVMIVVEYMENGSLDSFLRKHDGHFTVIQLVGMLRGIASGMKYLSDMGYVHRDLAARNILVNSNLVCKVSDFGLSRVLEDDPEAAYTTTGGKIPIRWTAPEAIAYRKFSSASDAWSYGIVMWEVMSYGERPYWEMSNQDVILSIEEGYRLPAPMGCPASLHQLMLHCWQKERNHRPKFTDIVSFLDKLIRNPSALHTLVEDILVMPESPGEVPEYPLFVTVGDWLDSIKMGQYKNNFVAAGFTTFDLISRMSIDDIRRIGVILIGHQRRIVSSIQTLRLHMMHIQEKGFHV

S6K1 = target: T28, S6K1 (Homo sapiens, UniProt P23443); assay: KINOMEscan; assay type: binding; details: read-out: %Ctrl @ 10000nM
T28 construct: purchased DiscoverX KINOMEscan

CDK5 = target: T29, CDK5 (Homo sapiens, UniProt Q00535); assay: KINOMEscan; assay type: binding; details: read-out: %Ctrl @ 10000nM
T29 construct: purchased DiscoverX KINOMEscan

YANK2 = target: T30, YANK2 (Homo sapiens, UniProt Q9NY57); assay: KINOMEscan; assay type: binding; details: read-out: %Ctrl @ 10000nM
T30 construct: DNA label for qPCR (T7 phage fusion or DNA tag); purchased DiscoverX scanMAX; host or cells: E. coli BL21-derived (T7 phage) or HEK-293

PRKD3 = target: T31, PRKD3 (Homo sapiens, UniProt O94806); assay: KINOMEscan; assay type: binding; details: read-out: %Ctrl @ 10000nM
T31 construct: purchased DiscoverX KINOMEscan
T31 sequence (O94806 whole entry): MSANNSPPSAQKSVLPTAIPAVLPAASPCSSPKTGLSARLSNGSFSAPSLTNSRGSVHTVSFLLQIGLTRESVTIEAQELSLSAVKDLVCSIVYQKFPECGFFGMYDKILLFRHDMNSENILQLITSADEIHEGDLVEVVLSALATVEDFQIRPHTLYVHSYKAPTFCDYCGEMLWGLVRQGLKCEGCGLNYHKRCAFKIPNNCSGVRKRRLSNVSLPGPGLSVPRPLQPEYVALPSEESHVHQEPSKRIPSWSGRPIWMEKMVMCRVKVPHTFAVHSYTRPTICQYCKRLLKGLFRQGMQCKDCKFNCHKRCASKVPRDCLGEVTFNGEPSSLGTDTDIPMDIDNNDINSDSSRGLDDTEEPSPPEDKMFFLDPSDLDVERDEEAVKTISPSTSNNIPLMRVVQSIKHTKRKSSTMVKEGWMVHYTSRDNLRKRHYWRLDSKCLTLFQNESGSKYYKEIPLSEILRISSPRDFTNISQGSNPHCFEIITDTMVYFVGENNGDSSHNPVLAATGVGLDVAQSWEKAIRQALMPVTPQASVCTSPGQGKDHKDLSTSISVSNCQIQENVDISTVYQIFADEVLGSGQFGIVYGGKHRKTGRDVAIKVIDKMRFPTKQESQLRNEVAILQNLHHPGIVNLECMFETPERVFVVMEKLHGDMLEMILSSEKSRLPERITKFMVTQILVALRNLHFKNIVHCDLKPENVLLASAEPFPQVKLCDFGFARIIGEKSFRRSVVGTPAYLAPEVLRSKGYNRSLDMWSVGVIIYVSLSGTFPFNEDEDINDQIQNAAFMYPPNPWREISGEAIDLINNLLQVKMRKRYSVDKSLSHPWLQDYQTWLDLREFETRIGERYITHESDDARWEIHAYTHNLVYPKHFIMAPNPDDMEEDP

AURKB = target: T32, AURKB (Homo sapiens, UniProt Q96GD4); assay: KINOMEscan; assay type: binding; details: read-out: %Ctrl @ 10000nM
T32 construct: purchased DiscoverX KINOMEscan

[2] = target: T33, ABL1(F317L)-phosphorylated (Homo sapiens, UniProt P00519, F317L); assay: KINOMEscan; assay type: binding; details: read-out: %Ctrl @ 10000nM
T33 construct: purchased DiscoverX KINOMEscan

CAMK1D = target: T34, CAMK1D (Homo sapiens, UniProt Q8IU85); assay: KINOMEscan; assay type: binding; details: read-out: %Ctrl @ 10000nM
T34 construct: purchased DiscoverX KINOMEscan

BMX = target: T35, BMX (Homo sapiens, UniProt P51813); assay: KINOMEscan; assay type: binding; details: read-out: %Ctrl @ 10000nM
T35 construct: purchased DiscoverX KINOMEscan

CDK2 = target: T36, CDK2 (Homo sapiens, UniProt P24941); assay: KINOMEscan; assay type: binding; details: read-out: %Ctrl @ 10000nM
T36 construct: purchased DiscoverX KINOMEscan

DYRK2 = target: T37, DYRK2 (Homo sapiens, UniProt Q92630); assay: KINOMEscan; assay type: binding; details: read-out: %Ctrl @ 10000nM
T37 construct: purchased DiscoverX KINOMEscan

KIT(D816H) = target: T38, KIT(D816H) (Homo sapiens, UniProt P10721, D816H); assay: KINOMEscan; assay type: binding; details: read-out: %Ctrl @ 10000nM
T38 construct: purchased DiscoverX KINOMEscan

TNIK = target: T39, TNIK (Homo sapiens, UniProt Q9UKE5); assay: KINOMEscan; assay type: binding; details: read-out: %Ctrl @ 10000nM
T39 construct: purchased DiscoverX KINOMEscan
T39 sequence (Q9UKE5 whole entry): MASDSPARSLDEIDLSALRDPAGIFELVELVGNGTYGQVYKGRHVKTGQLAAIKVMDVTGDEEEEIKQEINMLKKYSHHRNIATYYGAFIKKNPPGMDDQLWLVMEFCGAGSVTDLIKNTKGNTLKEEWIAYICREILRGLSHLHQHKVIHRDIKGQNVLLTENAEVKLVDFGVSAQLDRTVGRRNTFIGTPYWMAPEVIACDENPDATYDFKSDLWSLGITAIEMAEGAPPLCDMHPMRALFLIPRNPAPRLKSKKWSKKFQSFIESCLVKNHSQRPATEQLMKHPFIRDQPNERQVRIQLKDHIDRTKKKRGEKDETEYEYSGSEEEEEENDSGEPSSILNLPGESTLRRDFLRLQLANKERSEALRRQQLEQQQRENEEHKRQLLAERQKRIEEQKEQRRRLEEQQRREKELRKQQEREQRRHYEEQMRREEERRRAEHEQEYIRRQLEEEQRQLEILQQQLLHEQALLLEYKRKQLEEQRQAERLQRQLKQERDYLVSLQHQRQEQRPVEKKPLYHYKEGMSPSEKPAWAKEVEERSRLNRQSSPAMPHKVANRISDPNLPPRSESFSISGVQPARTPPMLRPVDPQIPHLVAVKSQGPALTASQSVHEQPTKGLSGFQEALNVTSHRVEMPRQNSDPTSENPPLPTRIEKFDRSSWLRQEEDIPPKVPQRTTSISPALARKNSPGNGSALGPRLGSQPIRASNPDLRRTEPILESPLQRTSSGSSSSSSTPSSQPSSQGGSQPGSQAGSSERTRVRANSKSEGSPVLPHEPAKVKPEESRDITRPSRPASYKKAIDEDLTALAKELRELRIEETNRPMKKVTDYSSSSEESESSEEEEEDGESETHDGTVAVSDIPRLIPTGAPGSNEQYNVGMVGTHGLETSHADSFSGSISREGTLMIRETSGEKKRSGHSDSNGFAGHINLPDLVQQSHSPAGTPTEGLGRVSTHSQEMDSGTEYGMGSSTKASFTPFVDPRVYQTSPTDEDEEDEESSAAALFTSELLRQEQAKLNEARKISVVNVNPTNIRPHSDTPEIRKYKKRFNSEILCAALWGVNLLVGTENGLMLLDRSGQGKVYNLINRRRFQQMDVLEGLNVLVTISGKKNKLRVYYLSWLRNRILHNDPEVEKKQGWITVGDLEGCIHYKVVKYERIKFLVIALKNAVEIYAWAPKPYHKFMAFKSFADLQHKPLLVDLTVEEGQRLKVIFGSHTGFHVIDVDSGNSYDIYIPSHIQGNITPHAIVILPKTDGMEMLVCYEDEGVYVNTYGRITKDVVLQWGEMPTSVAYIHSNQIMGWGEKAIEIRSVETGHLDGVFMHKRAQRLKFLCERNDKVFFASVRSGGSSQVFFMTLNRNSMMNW

SMILES: CC(C)c1ccc(CC(=O)N2CCN(c3ccc(C#N)nn3)CC2)cc1 [PZ-2891, 6-(4-(2-(4-isopropylphenyl)acetyl)piperazin-1-yl)pyridazine-3-carbonitrile]
- remaining binding at 10 µM (PKAC-beta): 95%
- remaining binding at 10 µM (KIT(V559D,V654A)): 73%
- remaining binding at 10 µM (PRKG2): 76%
- remaining binding at 10 µM (MKNK1): 97%
- remaining binding at 10 µM (DDR2): 85%
- remaining binding at 10 µM (SGK2): 64%
- remaining binding at 10 µM (EGFR(L858R,T790M)): 98%
- remaining binding at 10 µM (IRAK3): 42%
- remaining binding at 10 µM (ABL1-phosphorylated): 78%
- remaining binding at 10 µM (FLT3(D835H)): 92%
- remaining binding at 10 µM [1]: 74%
- remaining binding at 10 µM (FGFR3): 96%
- half-life (Plasma stability): > 50 h
- remaining binding at 10 µM (PIM3): 58%
- remaining binding at 10 µM (BMPR1A): 100%
- Papp (PAMPA-BBB): 52 ×10⁻⁶ cm/s
- remaining binding at 10 µM (CSNK1A1): 66%
- remaining binding at 10 µM (TAOK3): 95%
- remaining binding at 10 µM (CAMK2B): 88%
- remaining binding at 10 µM (TSSK3): 69%
- remaining binding at 10 µM (ZAK): 88%
- remaining binding at 10 µM (RET(V804M)): 95%
- remaining binding at 10 µM (ICK): 81%
- remaining binding at 10 µM (MYO3A): 68%
- remaining binding at 10 µM (PIP5K2B): 88%
- remaining binding at 10 µM (PIK3CA(H1047L)): 69%
- remaining binding at 10 µM (MLK2): 72%
- remaining binding at 10 µM (ERN1): 82%
- remaining binding at 10 µM (EPHA6): 89%
- remaining binding at 10 µM (S6K1): 96%
- remaining binding at 10 µM (CDK5): 87%
- remaining binding at 10 µM (YANK2): 100%
- remaining binding at 10 µM (PRKD3): 66%
- remaining binding at 10 µM (AURKB): 89%
- remaining binding at 10 µM [2]: 100%
- remaining binding at 10 µM (CAMK1D): 95%
- remaining binding at 10 µM (BMX): 100%
- remaining binding at 10 µM (CDK2): 87%
- remaining binding at 10 µM (DYRK2): 97%
- remaining binding at 10 µM (KIT(D816H)): 66%
- remaining binding at 10 µM (TNIK): 91%

Reference: paper PMC6199309, “A therapeutic approach to pantothenate kinase associated neurodegeneration” (Nature Communications, 2018)
